Data taken from paper PMC2887688 (Journal of biomolecular screening, 2010).
Entries after “also recorded” stand apart in the source; their conditions may differ.

Key:
hsFATP4 = hsFATP4 (Homo sapiens, UniProt Q6P1M0); experiment: BODIPY-FA; format: cell-based; conditions: hsFATP4 cells
hsFATP5 = molecular target: T1, hsFATP5 (Homo sapiens, UniProt Q9Y2P5); experiment: BODIPY-FA; format: cell-based; conditions: hsFATP5 cells, data not shown
T1 sequence (Q9Y2P5 1-690): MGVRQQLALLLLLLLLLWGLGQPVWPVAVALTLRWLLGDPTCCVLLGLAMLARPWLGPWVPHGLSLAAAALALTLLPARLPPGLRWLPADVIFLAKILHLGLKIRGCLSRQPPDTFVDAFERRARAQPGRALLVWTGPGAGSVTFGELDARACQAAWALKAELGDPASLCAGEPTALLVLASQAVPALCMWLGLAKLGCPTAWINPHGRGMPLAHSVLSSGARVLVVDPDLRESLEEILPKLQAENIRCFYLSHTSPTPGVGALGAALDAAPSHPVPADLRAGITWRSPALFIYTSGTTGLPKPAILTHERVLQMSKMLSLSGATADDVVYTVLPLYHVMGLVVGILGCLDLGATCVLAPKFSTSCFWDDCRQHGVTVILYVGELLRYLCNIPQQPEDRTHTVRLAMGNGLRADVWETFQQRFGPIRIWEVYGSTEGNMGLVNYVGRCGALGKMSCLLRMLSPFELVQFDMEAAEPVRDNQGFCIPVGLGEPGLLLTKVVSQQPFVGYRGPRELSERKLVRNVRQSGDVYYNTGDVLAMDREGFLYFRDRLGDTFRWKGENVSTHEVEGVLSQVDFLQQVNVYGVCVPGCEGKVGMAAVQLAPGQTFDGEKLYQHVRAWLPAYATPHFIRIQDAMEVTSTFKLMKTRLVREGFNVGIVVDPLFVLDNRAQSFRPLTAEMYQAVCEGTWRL

[1] = system: undifferentiated 3T3-L1 preadipocytes; experiment: BODIPY-FA uptake in undifferentiated 3T3-L1 preadipocytes/fibroblasts, FLIPR; format: cell-based, murine
3T3-L1 adipocytes = experiment: LCFA; format: cell-based, murine; conditions: insulin 0.2 – 1.7 uM

Sequence of hsFATP4 (Q6P1M0 whole entry): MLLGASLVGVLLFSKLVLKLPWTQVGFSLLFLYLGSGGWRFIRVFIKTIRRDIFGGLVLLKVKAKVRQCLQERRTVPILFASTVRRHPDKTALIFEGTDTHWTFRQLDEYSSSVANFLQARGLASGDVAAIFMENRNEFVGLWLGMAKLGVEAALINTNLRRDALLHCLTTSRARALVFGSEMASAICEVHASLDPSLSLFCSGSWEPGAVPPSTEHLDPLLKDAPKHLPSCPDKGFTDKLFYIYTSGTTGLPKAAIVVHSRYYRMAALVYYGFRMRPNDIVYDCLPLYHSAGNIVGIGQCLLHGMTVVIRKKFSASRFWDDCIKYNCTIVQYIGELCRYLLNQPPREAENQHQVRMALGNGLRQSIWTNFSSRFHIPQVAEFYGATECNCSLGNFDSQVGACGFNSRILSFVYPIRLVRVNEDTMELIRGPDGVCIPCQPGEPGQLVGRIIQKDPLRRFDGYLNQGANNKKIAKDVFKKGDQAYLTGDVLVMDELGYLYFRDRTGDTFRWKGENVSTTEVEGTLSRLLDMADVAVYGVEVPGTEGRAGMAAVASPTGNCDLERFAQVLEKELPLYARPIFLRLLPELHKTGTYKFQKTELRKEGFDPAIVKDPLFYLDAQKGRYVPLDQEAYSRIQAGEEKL

C[C@H](CCC(=O)O)[C@H]1CC[C@H]2[C@@H]3[C@@H](O)C[C@@H]4C[C@H](O)CC[C@]4(C)[C@H]3CC[C@]12C [ursodiol, ursodeoxycholic acid]
increase of fatty acid uptake signal by hsFATP4 at high concentration (in words) (hsFATP4; FLIPR): apparent signal increase at 100 uM

CCCCCCCCCCCCCCCC(=O)O [palmitic acid]
inhibition of fatty acid uptake by FATP5 (in words) (hsFATP5): did not inhibit
inhibition of fatty acid uptake by FATP4 (in words) (hsFATP4; FLIPR concentration-response): did not inhibit

insulin: adipogenic hormone insulin, enhances LCFA uptake in adipocytes
effect on uptake in undifferentiated 3T3-L1 preadipocytes/fibroblasts [1]: much weaker effects; also recorded: minimal effect
maximal insulin-induced uptake over the baseline of adipocytes (3T3-L1 adipocytes): about two- to three-fold
